Data taken from patent US20220227765A1, “PYRIDO-INDOLE ANALOGUES AS GPX4 INHIBITORS” (Ferro Therapeutics, Inc., priority 2019, published 2022).
Like-named read-outs stand apart in the source and are kept apart here.

Key:
Type in all cases: cell-based, human
A431 = test: Cell proliferation (Alamar Blue) assay, A431
Procedure: (§1) Cell viability assay was performed to assess the potency of the compounds in human cancer cell lines 786-0 (renal cell carcinoma) and SJSA-1 (osteosarcoma). Additional cell lines, such as pancreatic cancer cell lines (Panc 02.13, BxPC-3, Panc 12, Panc 02.03, Panc 6.03, PSN-1, HPAC, and Capan-1), prostate cancer cell lines (PC-3, DU145, 22Rv1, NCI-H660, BPH1, LNCaP, BM-1604, and MDA PCa 2b), etc., can be tested in a similar method.
(§2) Cells (SJSA-1, 786-0 and A431) were seeded (5000 cells/100 μL/well) in 96-well tissue culture plate and incubated at 37° C./5% CO2 for 16-24 hours. The cells were then treated with compounds (25 μL of 5×). The compound concentrations were 10-0.0005 μM prepared in 3-fold serial dilutions with final DMSO concentration of 1%. The plates were then incubated for 24 h at 37° C./5% CO2 in a moist environment. Then Alamar Blue™ reagent (final concentration 1×-12.5 μL) was added to each well and incubated for 1.5 hours at 37° C./5% CO2. The plates were read on fluorescence reader at 540 nm excitation and 590 nm emission wavelengths. The IC50 values were subsequently determined using a sigmoidal dose-response curve (variable slope) in GraphPad Prism® 5 software. Table A-3, Table B-3 and Table C-3 show cell proliferation data for certain compounds as described herein.

SJSA-1 = test: Cell proliferation (Alamar Blue) assay, SJSA-1
Procedure: as §1, §2

786-O = test: Cell proliferation (Alamar Blue) assay, 786-O
Procedure: as §1, §2

[1] = Homo sapiens, A-431, 24 h, Table B-3, A431 cells
[2] = Homo sapiens, SJSA-1, 24 h, Table B-3, head prints SJSB-1, 24 h, read-out: IC50 (μM) SJSB-1
[3] = Homo sapiens, 786-0, 24 h, Table B-3, 786-O cells
[4] = Homo sapiens, A-431, 24 h, Table C-3, A431 cells
[5] = Homo sapiens, SJSA-1, 24 h, Table C-3, SJSA-1 cells, 24 h, read-out: IC50 (μM) SJSA-1
[6] = Homo sapiens, 786-0, 24 h, Table C-3, 786-O cells
[7] = Table B-3, head prints SJSB-1, 24 h, read-out: IC50 (μM) SJSB-1

Row | Compound | IC50 (A431; [1]) | IC50 (SJSA-1; [2]) | IC50 (786-O; [3]) | also measured
1 | C#CC(=O)N1C(c2ccn(C34CC5CC(CC(C5)C3)C4)n2)c2[nH]c3ccccc3c2C[C@@H]1CCCC (some centres unmarked) [Compound B-63] | 5.8 µM | 0.059 µM | 0.061 µM | –
2 | C#CC(=O)N1[C@@H](CCCC)Cc2c([nH]c3ccccc23)[C@@H]1c1ccc(C(=O)NCCn2ccnc2)cc1 [Compound B-19] | > 10 µM | 0.294 µM | 0.367 µM | –
3 | C#CC(=O)N1[C@@H](CCCC)Cc2c([nH]c3ccccc23)[C@@H]1c1ccc(NC2CCCC2)cc1 [Compound B-68] | > 10 µM | 0.0715 µM | 0.045 µM | –
4 | C#CC(=O)N1[C@@H](CCCC)Cc2c([nH]c3ccc(F)cc23)[C@@H]1c1ccc(NC23CC4CC(CC(C4)C2)C3)cc1 [Compound B-64] | 4.45 µM | 0.012 µM | 0.008 µM | –
5 | C#CC(=O)N1[C@@H](CCCC)Cc2c([nH]c3ccccc23)[C@]1(C)c1ccc(F)cc1 [Compound C-11] | – | – | – | IC50 (A431; [4]): > 10 µM; IC50 (SJSA-1; [5]): 0.22 µM; IC50 (786-O; [6]): 0.098 µM
6 | C#CC(=O)N1[C@@H](CCCC)Cc2c([nH]c3c(F)cc(F)cc23)[C@@H]1COCCOC [Compound B-80] | 6.8 µM | 0.093 µM | 0.043 µM | –
7 | C#CC(=O)N1[C@@H](CCCC)Cc2c([nH]c3ccc(F)cc23)[C@@H]1c1ccc(C(=O)NCCOC)cc1 [Compound B-11] | 4.3 µM | 0.025 µM | 0.008 µM | –
8 | C#CC(=O)N1[C@@H](CCCC)Cc2c([nH]c3ccccc23)[C@@H]1c1ccc(NC23CC4CC(CC(C4)C2)C3)cc1 [Compound B-17] | – | – | – | IC50 (A431; Table B-3, A431 cells, 24 h): 3.6 µM; IC50 (SJSA-1; [7]): 0.008 µM; IC50 (786-O; Table B-3, 786-O cells, 24 h): 0.006 µM
9 | C[C@H]1Cc2c([nH]c3ncccc23)[C@H](c2ccc(F)cc2)N1C(=O)CCl [Compound A-1] | – | – | – | IC50 (A431; Homo sapiens, A-431, 24 h, Table A-3, A431 cells): > 10 µM; IC50 (SJSA-1; Homo sapiens, SJSA-1, 24 h, Table A-3, SJSA-1 cells, 24 h, read-out: IC50 (μM) SJSA-1): 0.145 µM; IC50 (786-O; Homo sapiens, 786-0, 24 h, Table A-3, 786-O cells): 0.03 µM
10 | C#CC(=O)N1[C@@H](CCCC)Cc2c([nH]c3c(F)cc(F)cc23)[C@@H]1c1ccc(NC(=O)CCCCC(=O)O)cc1 [Compound B-87] | > 10 µM | > 10 µM | > 10 µM | –
11 | C#CC(=O)N1[C@@H](CCCC)Cc2c([nH]c3c(F)cc(F)cc23)[C@@H]1CCCCCCCC [Compound C-21] | – | – | – | IC50 (A431; [4]): 9.4 µM; IC50 (SJSA-1; [5]): 0.08 µM; IC50 (786-O; [6]): 0.07 µM
12 | C#CC(=O)N1[C@@H](CCCC)Cc2c([nH]c3c(F)cc(F)cc23)[C@@H]1CCC [Compound C-3] | – | – | – | IC50 (A431; [4]): > 10 µM; IC50 (SJSA-1; [5]): 0.22 µM; IC50 (786-O; [6]): 0.14 µM
13 | C#CC(=O)N1[C@@H](CCCC)Cc2c([nH]c3ccccc23)[C@@H]1CCCCC [Compound B-92] | > 10 µM | 0.17 µM | 0.137 µM | –
14 | C#CC(=O)N1[C@@H](CCCC)Cc2c([nH]c3c(F)cc(F)cc23)[C@@H]1c1ccc(N2CCN(C)CC2)cc1 [Compound B-57] | > 10 µM | 0.063 µM | 0.059 µM | –
15 | CC1(c2ccc(F)cc2)c2[nH]c3ccccc3c2CCN1C(=O)CCl (centres unmarked) [Compound C-20] | – | – | – | IC50 (SJSA-1; [5]): 3.98 µM; IC50 (786-O; [6]): 4.49 µM
16 | C#CC(=O)N1[C@@H](CCCC)Cc2c([nH]c3ccccc23)[C@@H]1C12CC3CC(CC(C3)C1)C2 [Compound B-94] | > 10 µM | 1.37 µM | 1.06 µM | –
17 | C#CC(=O)N1[C@@H](CCC)Cc2c([nH]c3ccccc23)[C@@H]1c1ccc(NC23CC4CC5CC(C2)C54C3)cc1 (some centres unmarked) [Compound B-67] | 2 µM | 0.0025 µM | 0.006 µM | –
18 | C#CC(=O)N1CCc2c([nH]c3ccccc23)C1(C)c1ccc(F)cc1 (centres unmarked) [Compound C-19] | – | – | – | IC50 (SJSA-1; [5]): 1.89 µM; IC50 (786-O; [6]): 2.32 µM
19 | COC(=O)[C@H]1Cc2c([nH]c3ccccc23)[C@@H](c2ccc(N(C(=O)CCCC[C@@H]3SC[C@@H]4NC(=O)N[C@@H]43)C3CC3)cc2)N1C(=O)CCl [Compound B-9, methyl (1R,3R)-2-(2-chloroacetyl)-1-(4-(N-cyclopropyl-5-((3aS,4S,6aR)-2-oxohexahydro-1H-thieno[3,4-d]imidazol-4-yl)pentanamido)phenyl)-2,3,4,9-tetrahydro-1H-pyrido[3,4-b]indole-3-carboxylate] | – | > 10 µM | > 10 µM | –
20 | COC(=O)[C@H]1Cc2c([nH]c3ccccc23)[C@H](c2ccc(N(C(=O)CCCC[C@@H]3SC[C@@H]4NC(=O)N[C@@H]43)C3CC3)cc2)N1C(=O)CCl [Compound B-8, methyl (1S,3R)-2-(2-chloroacetyl)-1-(4-(N-cyclopropyl-5-((3aS,4S,6aR)-2-oxohexahydro-1H-thieno[3,4-d]imidazol-4-yl)pentanamido)phenyl)-2,3,4,9-tetrahydro-1H-pyrido[3,4-b]indole-3-carboxylate] | – | 1.9 µM | 1.7 µM | –
21 | C#CC(=O)N1[C@@H](CCCC)Cc2cc(OC)ccc2[C@]1(C)c1ccc(NC23CC4CC(CC(C4)C2)C3)cc1 [Compound C-35] | – | – | – | IC50 (A431; [4]): > 10 µM; IC50 (786-O; [6]): 0.45 µM
22 | C[C@H]1Cc2c([nH]c3ccccc23)[C@](C)(c2ccc(F)cc2)N1C(=O)CCl [Compound C-18] | – | – | – | IC50 (SJSA-1; [5]): 0.332 µM; IC50 (786-O; [6]): 0.437 µM
23 | C#CC(=O)N1[C@@H](CCCC)Cc2c([nH]c3c(F)cc(F)cc23)[C@@H]1c1ccc(NC(=O)OCCCCC)cc1 [Compound B-91] | – | – | – | IC50 (SJSA-1; [7]): 0.075 µM; IC50 (786-O; Table B-3, 786-O cells, 24 h): 0.076 µM
24 | C#CC(=O)N1[C@@H](CCCC)Cc2c([nH]c3c(F)cc(F)cc23)[C@@H]1C1CCN(C(=O)OC)CC1 [Compound B-75] | – | – | – | IC50 (SJSA-1; [7]): 0.06 µM; IC50 (786-O; Table B-3, 786-O cells, 24 h): 0.03 µM
25 | C#CC(=O)N1[C@@H](CCCC)Cc2c(n(C)c3c(F)cc(F)cc23)[C@@H]1c1ccc(NC(=O)OCCCCC)cc1 [Compound B-96] | – | 0.293 µM | 0.08 µM | –
26 | C#CC(=O)N1[C@@H](CCCC)Cc2c([nH]c3ccccc23)[C@@H]1c1ccc(NC23CC4CC(CC(O)(C4)C2)C3)cc1 [Compound B-44] | – | 0.014 µM | 0.006 µM | –
27 | C#CC(=O)N1[C@@H](CCCC)Cc2c([nH]c3c(F)cc(F)cc23)[C@@H]1C12CC(NC(=O)OCCCCC)(C1)C2 [Compound B-84] | – | 0.084 µM | 0.086 µM | –
28 | C#CC(=O)N1[C@@H](CCCC)Cc2c([nH]c3ccccc23)[C@@H]1c1ccc(N2C3CCC2COC3)cc1 [Compound B-66, 1-((1 S,3 S)-1-(4-(3-oxa-8-azabicyclo[3.2.1]octan-8-yl)phenyl)-3-butyl-1,3,4,9-tetrahydro-2H-pyrido[3,4-b]indol-2-yl)prop-2-yn-1-one] | 4.35 µM | – | – | –
29 | C#CC(=O)N1[C@@H](CCCC)Cc2cc(OC)ccc2[C@@]1(C)c1ccc(NC23CC4CC(CC(C4)C2)C3)cc1 [Compound C-36] | – | – | – | IC50 (A431; [4]): > 10 µM; IC50 (786-O; [6]): 0.69 µM

The next lines start with results.

Row | IC50 (A431; [1]) | IC50 (SJSA-1; [2]) | IC50 (786-O; [3]) | Compound | also measured
30 | > 10 µM | 0.504 µM | 0.207 µM | C#CC(=O)N1[C@@H](CCCC)Cc2c([nH]c3c(F)cc(F)cc23)[C@@H]1C1CCC2(CC1)OCCO2 [Compound B-99] | –
31 | 6.35 µM | 0.0455 µM | 0.071 µM | C#CC(=O)N1[C@@H](CCCC)Cc2c(n(CC#N)c3c(F)cc(F)cc23)[C@@H]1c1ccc(NC(=O)OCCCCC)cc1 [Compound B-97] | –
32 | 7.84 µM | 0.04 µM | 0.0285 µM | C#CC(=O)N1[C@@H](CCCC)Cc2c(sc3ccccc23)[C@@H]1c1ccc(NC(=O)OCCCCC)cc1 [Compound B-100] | –
33 | 7.97 µM | – | 0.155 µM | C#CC(=O)N1[C@@H](CCCC)Cc2c(oc3ccccc23)[C@@H]1c1ccc(NC(=O)OCCCCC)cc1 [Compound B-101] | –
34 | > 10 µM | – | 0.181 µM | C#CC(=O)N1[C@@H](CCCC)Cc2c(n(CC(O)CO)c3c(F)cc(F)cc23)[C@@H]1c1ccc(NC(=O)OCCCCC)cc1 (some centres unmarked) [Compound B-98] | –
